This is an account of results in ChEMBL document CHEMBL3886670, “ROR modulators and their uses” (2016).

SMILES strings stand for the structures.

This test deals with T1, Nuclear receptor ROR-gamma (Homo sapiens, UniProt P51449).
T1 sequence (P51449 whole entry): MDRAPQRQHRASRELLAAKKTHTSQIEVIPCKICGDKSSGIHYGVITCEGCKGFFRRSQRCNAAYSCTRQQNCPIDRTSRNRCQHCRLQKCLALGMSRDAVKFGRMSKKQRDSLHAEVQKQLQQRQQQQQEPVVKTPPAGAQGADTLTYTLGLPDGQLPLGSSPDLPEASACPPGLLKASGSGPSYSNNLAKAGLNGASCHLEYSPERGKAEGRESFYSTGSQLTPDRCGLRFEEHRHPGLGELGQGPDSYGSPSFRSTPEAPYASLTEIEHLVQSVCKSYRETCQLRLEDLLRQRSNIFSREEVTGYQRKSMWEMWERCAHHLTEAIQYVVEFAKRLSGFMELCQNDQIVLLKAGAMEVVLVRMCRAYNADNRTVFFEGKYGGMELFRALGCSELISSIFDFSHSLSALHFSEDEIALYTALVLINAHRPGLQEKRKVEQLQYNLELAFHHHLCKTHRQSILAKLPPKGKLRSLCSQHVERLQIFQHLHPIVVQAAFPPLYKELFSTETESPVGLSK
The experiment in a line: Binding Assay: Compound binding to the human RORγ LBD was assessed using the Human RORγ Assay System (INDIGO Biosciences Inc.) as per manufacturer's instructions. Binding to the RORγ LBD was assessed using gradient concentrations of the indicated compounds in a final concentration of 0.5% DMSO.

One may read the IC50 as the point on the concentration scale where inhibition reaches its midpoint. High values mean lower potency, low ones higher potency. For `CS(=O)(=O)Nc1ccc2c(c1)CCC(=O)N2Cc1ccc(C(O)(C(F)(F)F)C(F)(F)F)cc1`, the IC50 was < 10 µM.
